These results are taken from ChEMBL document CHEMBL5729331, “Small molecule activators of nicotinamide phosphoribosyltransferase (NAMPT) and uses thereof” (2022).

This test addresses Nicotinamide phosphoribosyltransferase (Homo sapiens, UniProt P43490). The test can be described thus: Enzyme Assay and NMN Detection: NAMPT reaction was performed in 50 mM HEPES, pH 7.5, containing 5 mM MgCl2, 0.1% Prionex, 0.005% Tween 20, and 1 mM TCEP at room temperature in Greiner 384-well black polypropylene plates. […] Following 2 h incubation the reaction was stopped by addition 2.5 ul 20% acetophenone in dimethyl sulfoxide (DMSO) and 2.5 ul 2 MKOH. Plates were centrifuges and added with 10.5 ul 88% formic acid. […] The increased concentration of NMN was determined from a calibration curve obtained at the time of experiment.

Sequence of Nicotinamide phosphoribosyltransferase (P43490 whole entry): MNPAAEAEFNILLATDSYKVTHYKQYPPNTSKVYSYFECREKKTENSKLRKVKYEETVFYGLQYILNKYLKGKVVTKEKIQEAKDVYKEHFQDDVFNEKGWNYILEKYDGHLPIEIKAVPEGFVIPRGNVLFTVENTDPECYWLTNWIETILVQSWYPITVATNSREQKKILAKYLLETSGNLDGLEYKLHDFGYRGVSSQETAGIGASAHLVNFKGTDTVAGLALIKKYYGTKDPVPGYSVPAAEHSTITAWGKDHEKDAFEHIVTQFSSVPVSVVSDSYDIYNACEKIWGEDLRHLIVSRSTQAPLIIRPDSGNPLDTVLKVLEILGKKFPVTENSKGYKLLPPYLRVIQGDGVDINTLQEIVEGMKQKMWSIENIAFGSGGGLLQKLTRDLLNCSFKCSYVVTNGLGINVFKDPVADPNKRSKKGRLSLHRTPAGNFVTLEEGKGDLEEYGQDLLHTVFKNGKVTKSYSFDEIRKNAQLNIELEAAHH

In general, EC50 refers to the concentration giving half of the maximal effect. A high value points to a less potent agent. `NC(=O)c1ccc(NC(=O)NCc2ccncc2)nc1` gave an EC50 above 20 µM.
For `CCOC(=O)c1ccc(NC(=O)NCc2ccncc2)nc1` the value was above 20 µM; for `CCOC(=O)c1ccc(NC(=O)NCc2ccncc2)cn1`, above 20 µM.
